From EP0049801B1, “Sucrose-mutase, immobilized sucrose-mutase and use of this immobilized sucrose-mutase for the production of isomaltulose(6-O-alpha-D-glucopyranosido-D fructose)” (BAYER AG, priority 1980, dated 1982)

Tested on: Saccharose-Mutase
Assay: Influence of ions on the enzymatic reaction
Assay type: biochemical, Protaminobacter rubrum
Description: Das freie Enzym wird bei Temperaturen > 40 °C rasch inaktiviert. Die Reaktion wird durch CU- + Zn-Ionen stark gehemmt.

Row | Einfluß auf die enzymatische Aktivität | Structure (SMILES)
1 | keinen Einfluß | OB(O)O [Borat]
2 | stark gehemmt | [Cu+2] [CU]
